Where a name gives a salt, the structure may show the parent alone.
Tested on: HTT
Experiment: Mini-gene reporter assay-HTT (firefly luciferase, exon inclusion)
Type: cell-based
Conditions: for Emax at 5 µM: HTT Minigene, read-out: % Efficacy at 5 μM; for EC50: Homo sapiens, HTT mini-gene firefly luciferase reporter transiently transfected into HEK293 cells
From the text: Mini-gene reporter constructs for each target site were constructed by first PCR amplifying the region-of-interest including the sequence of the alternatively skipped, sequences of the immediate upstream and downstream introns, and sequences of the immediate upstream and downstream exons. Then the 3′end of the amplified sequence was ligated to a firefly luciferase reporter gene and cloned into the pcDNA3.1 vector backbone. The final reporter construct was transiently transfected into HEK293 cells using Lipofectamine 3000 transfection reagents. Compounds that can induce the inclusion of the skipped exon in the reporter construct would increase the reporter firefly luciferase activity.
Test compounds were diluted in duplicates and dispensed into an assay plate. Transient mini-gene reporter cell line stock was resuspended and dispensed into the assay plate. Assay plates were then centrifuged and incubated. A luciferase reagent (e.g. ONE-Glo firefly luciferase reagent from Promega®) was added to the assay plate and the luminescence (RLU) signals recorded. EC50 values were determined by curve fitting in Levenberg-Marquardt algorithm.

Row | SMILES | Emax at 5 µM [%] | EC50 [nM]
1 | COc1cc(-c2ccc(-c3ccc(C4CN(Cc5cnc(C)o5)C4)nn3)c(O)c2)cc2cn(C)nc12 [Compound 162] | 25 to 75 | –
2 | Cc1cn2nc(-c3ccc(-c4ccc(C5CN(C6CCOCC6)C5)nn4)c(O)c3)cc(C)c2n1 [Compound 64, 5-(2,8-dimethylimidazo[1,2-b]pyridazin-6-yl)-2-(6-(1-(tetrahydro-2H-pyran-4-yl)azetidin-3-yl)pyridazin-3-yl)phenol hydrochloride] | – | 500 to 1000
3 | Cc1cn2cc(-c3cc(O)c(-c4ccc(C5CNC5)nn4)c(F)c3)cc(F)c2n1 [Compound 11, 2-[6-(azetidin-3-yl)pyridazin-3-yl]-3-fluoro-5-{8-fluoro-2-methylimidazo[1,2-a]pyridin-6-yl}phenol] | – | 500 to 1000
4 | CCN1CC(c2ccc(-c3ccc(-c4cc(OC)c5nn(C)cc5c4)cc3O)nn2)C1 [Compound 48, 2-[6-(1-ethylazetidin-3-yl)pyridazin-3-yl]-5-(7-methoxy-2-methyl-2H-indazol-5-yl)phenol] | – | 50 to 500
5 | Cc1cn2cc(-c3ccc(-c4ccc(C5CN(CC6CCSC6)C5)nn4)c(O)c3)cc(F)c2n1 (centres unmarked) [Compound 111] | > 750 | –
6 | Cc1cn2cc(-c3ccc(-c4ccc(C5CNC5)nn4)c(O)c3F)cc(F)c2n1 [Compound 10, 6-[6-(azetidin-3-yl)pyridazin-3-yl]-2-fluoro-3-{8-fluoro-2-methylimidazo[1,2-a]pyridin-6-yl}phenol] | – | < 50
7 | CCN1CC(c2ccc(-c3ccc(-c4cn5cc(C)nc5c(C)n4)cc3O)nn2)C1 [Compound 32, 5-{2,8-dimethylimidazo[1,2-a]pyrazin-6-yl}-2-[6-(1-ethylazetidin-3-yl)pyridazin-3-yl]phenol] | – | ≥ 1000
8 | CCN1CC(c2ccc(-c3ccc(-c4cc5cn(C)nc5c(OC)n4)cc3O)nn2)C1 [Compound 52, 2-[6-(1-ethylazetidin-3-yl)pyridazin-3-yl]-5-{7-methoxy-2-methyl-2H-pyrazolo[3,4-c]pyridin-5-yl}phenol] | – | 50 to 500
9 | Cc1cn2cc(-c3ccc(-c4ccc(C5CN(C6CC7(COC(C)C7)C6)C5)nn4)c(O)c3)cc(F)c2n1 (centres unmarked) [Compound 124] | 25 to 75 | –
10 | COc1nn(C)cc1CN1CC(c2ccc(-c3ccc(-c4cc(F)c5nc(C)cn5c4)cc3O)nn2)C1 [Compound 126] | 25 to 75 | –
11 | CCn1cc(CN2CC(c3ccc(-c4ccc(-c5cc(F)c6nc(C)cn6c5)cc4O)nn3)C2)nn1 [Compound 123] | 25 to 75 | –
12 | COc1cc(-c2ccc(-c3ccc(C4CN(C5CC(OC)C5)C4)nn3)c(O)c2)cc2cn(C)nc12 (centres unmarked) [Compound 160] | 25 to 75 | –
13 | COc1nc(-c2ccc(-c3ccc(C4CN(C5CCOCC5)C4)nn3)c(O)c2)cc2cn(C)nc12 [Compound 58, 5-{7-methoxy-2-methyl-2H-pyrazolo[3,4-c]pyridin-5-yl}-2-{6-[1-(oxan-4-yl)azetidin-3-yl]pyridazin-3-yl}phenol] | – | 50 to 500
14 | CCn1cc(CN2CC(c3ccc(-c4ccc(-c5cc(F)c6nc(C)cn6c5)cc4O)nn3)C2)cn1 [Compound 77] | > 750 | –
15 | Cc1cn2cc(-c3ccc(-c4ccc(C5CN(Cc6ccn(C)c6)C5)nn4)c(O)c3)cc(F)c2n1 [Compound 94] | 25 to 75 | –
16 | CCc1cc(-c2ccc(-c3ccc(C4CN(C5CCOCC5)C4)nn3)c(O)c2)nc2cn(C)nc12 [Compound 59, 5-{7-ethyl-2-methyl-2H-pyrazolo[4,3-b]pyridin-5-yl}-2-{6-[1-(oxan-4-yl)azetidin-3-yl]pyridazin-3-yl}phenol] | – | ≥ 1000
17 | Cc1cn2cc(-c3ccc(-c4ccc(C5CN(CC6CCCOC6)C5)nn4)c(O)c3)cc(F)c2n1 (centres unmarked) [Compound 88] | 25 to 75 | –
18 | Cc1cn2cc(-c3ccc(-c4ccc(C5CN(C(C)CCn6cccn6)C5)nn4)c(O)c3)cc(F)c2n1 (centres unmarked) [Compound 107] | 25 to 75 | –
19 | Cc1cn2cc(-c3ccc(-c4ccc(C5CN(Cc6cn(C)nc6C)C5)nn4)c(O)c3)cc(F)c2n1 [Compound 81] | 25 to 75 | –

Row | SMILES | Emax at 5 µM [%] | EC50 [nM]
20 | Cc1cn2nc(-c3ccc(-c4ccc(C5CNC5)nn4)c(O)c3)cc(C)c2n1 [Compound 3, 2-[6-(azetidin-3-yl)pyridazin-3-yl]-5-{2,8-dimethylimidazo[1,2-b]pyridazin-6-yl}phenol] | – | 50 to 500
21 | COc1cc(-c2ccc(-c3ccc(C4CN(Cc5ccc(CO)cc5)C4)nn3)c(O)c2)cc2cn(C)nc12 [Compound 181] | 25 to 75 | –
22 | Cc1cn2cc(-c3ccc(-c4ccc(C5CN(Cc6cc[nH]c6)C5)nn4)c(O)c3)cc(F)c2n1 [Compound 98] | > 750 | –
23 | Cc1cn2cc(-c3ccc(-c4ccc(C5CN(C6CCOC7(CCC7)C6)C5)nn4)c(O)c3)cc(F)c2n1 (centres unmarked) [Compound 113] | 25 to 75 | –
24 | Cc1cn2cc(-c3ccc(-c4ccc(C5CN(Cc6cc[nH]n6)C5)nn4)c(O)c3)cc(F)c2n1 [Compound 72] | > 750 | –
25 | Cc1cn2cc(-c3ccc(-c4ccc(C5CN(Cc6cn(C)cn6)C5)nn4)c(O)c3)cc(F)c2n1 [Compound 100] | 25 to 75 | –
26 | COc1cc(-c2ccc(-c3ccc(C4CN(CC5CC6CC6C5)C4)nn3)c(O)c2)cc2cn(C)nc12 (centres unmarked) [Compound 185] | 25 to 75 | –
27 | Cc1cn2cc(-c3ccc(-c4ccc(C5CN(C(C)Cn6cncn6)C5)nn4)c(O)c3)cc(F)c2n1 (centres unmarked) [Compound 120] | < 25 | –
28 | CCN1CC(c2ccc(-c3ccc(-c4cc(OC)c5nn(C)cc5n4)cc3O)nn2)C1 [Compound 66, 2-(6-(1-ethylazetidin-3-yl)pyridazin-3-yl)-5-(7-methoxy-2-methyl-2H-pyrazolo[4,3-b]pyridin-5-yl)phenol hydrochloride] | – | ≥ 1000
29 | COc1cc(-c2ccc(-c3ccc(C4CN(Cc5nc(C)ccc5O)C4)nn3)c(O)c2)cc2cn(C)nc12 [Compound 149] | 25 to 75 | –
30 | Cc1cc2cc(-c3ccc(-c4ccc(C5CN(C)C5)nn4)c(O)c3)ccn2n1 [Compound 21, 2-[6-(1-methylazetidin-3-yl)pyridazin-3-yl]-5-{2-methylpyrazolo[1,5-a]pyridin-5-yl}phenol] | – | ≥ 1000
31 | Cn1cc2cc(-c3ccc(-c4ccc(C5CN(C6CCOC6)C5)nn4)c(O)c3)ccc2n1 (centres unmarked) [Compound 45, 5-(2-methyl-2H-indazol-5-yl)-2-{6-[1-(oxolan-3-yl)azetidin-3-yl]pyridazin-3-yl}phenol] | – | 500 to 1000
32 | COc1cc(-c2ccc(-c3ccc(C4CN(C5CCC(C#N)CC5)C4)nn3)c(O)c2)cc2cn(C)nc12 (centres unmarked) [Compound 164] | > 750 | –
33 | COc1cc(-c2ccc(-c3ccc(C4CN(C5CCC(C)C5)C4)nn3)c(O)c2)cc2cn(C)nc12 (centres unmarked) [Compound 135] | 25 to 75 | –
34 | COc1cc(-c2ccc(-c3ccc(C4CN(Cc5ocnc5C)C4)nn3)c(O)c2)cc2cn(C)nc12 [Compound 170] | < 25 | –
35 | CN1CC(c2ccc(-c3ccc(-c4ccc5nn(C)cc5c4)cc3O)nn2)C1 [Compound 19, 5-(2-methyl-2H-indazol-5-yl)-2-[6-(1-methylazetidin-3-yl)pyridazin-3-yl]phenol] | – | ≥ 1000
36 | Cc1cn2cc(-c3ccc(-c4ccc(C5CN(Cc6ccn(C)n6)C5)nn4)c(O)c3)cc(F)c2n1 [Compound 80] | 25 to 75 | –
37 | CCOC1CC(N2CC(c3ccc(-c4ccc(-c5cc(OC)c6nn(C)cc6c5)cc4O)nn3)C2)C1 (centres unmarked) [Compound 163] | 25 to 75 | –
38 | CCN1CC(c2ccc(-c3ccc(-c4cn5cc(C)nc5cn4)cc3O)nn2)C1 [Compound 43, 2-[6-(1-ethylazetidin-3-yl)pyridazin-3-yl]-5-{2-methylimidazo[1,2-a]pyrazin-6-yl}phenol] | – | 500 to 1000
